Assay results published in US20250145631A1, “HETEROCYCLIC COMPOUND ACTING ON G12D MUTANT KRAS PROTEIN” (Astellas Pharma Inc., priority 2022, published 2025).

Columns and labels:
Type in all cases: cell-based
[1] = tested on: human G12D mutant KRAS-positive pancreatic cancer line AsPC-1; experiment: Non-anchorage-dependent cell growth inhibitory effect, spheroid 3D culture (Test Example 3); conditions: ASPC1, 144 h, AsPC-1 spheroid 3D culture, 6 days; for IC50: CellTiter Glo 2.0, read-out: IC50 (non-anchorage-dependent cell growth inhibition)
Method: The non-anchorage-dependent cell growth inhibitory effect of test compounds was evaluated by spheroid 3D cell culture.
AsPC-1 cells were seeded on low-cell-adhesive round bottom 384-well plates (PrimeSurface: from Sumitomo Bakelite) at 20 μL (or […])/well to give 5×10^2 cells per well. As for the cell culture conditions, RPMI 1640 medium containing 10% fetal bovine serum was used in the presence of 5% CO2 at 37° C.
The next day, the test compounds (10 points or 6 points having final concentrations in the range of 10 μM to 0.3 nM) and DMSO, which was the solvent for the test compounds, as a negative control were diluted 500-fold (or 100-fold) with a fresh medium and were added at 20 μL (or […]) per well. After culturing in the presence of 5% C02 at 37° C. for 6 days, CellTiter Glo 2.0 (from Promega) was added at 20 μL per well. After stirring with a plate mixer (from FINEPCR) at normal temperature for 1 hour, the luminescent signals were measured with ARVO X3 (from PerkinElmer).
(§1) With the signaling value in treatment with DMSO taken as 100% and with the signaling value in the medium alone without cells taken as 0%, the 50% inhibitory concentration values (IC50) were calculated by Sigmoid-Emax nonlinear regression analysis. The calculated 50% inhibition represents the inhibition at the highest concentration evaluated (10 μM) for a compound that exceeds the concentration in the evaluation range.
(§2) In the tables presented below, Ex represents Example No. The IC50 of Ex. 13, Ex. 15, and Ex. 16 were calculated using the molecular weights as tetrahydrochloride, and the IC50 of Ex. 14 was calculated using the molecular weight as trihydrochloride.

[2] = tested on: phosphorylation of ERK (Thr202/Tyr204); experiment: ERK phosphorylation inhibitory effect by Cell ELISA in AsPC-1 cells (Test Example 2); conditions: Homo sapiens; for IC50: ASPC1, overnight treatment, Cell ELISA, read-out: IC50 (ERK phosphorylation inhibition)
Method: The ERK phosphorylation inhibitory effect of test compounds was evaluated by measuring phosphorylation of threonine 202 (Thr202) and tyrosine 204 (Tyr204) of ERK located downstream of the KRAS signal by Cell ELISA.
AsPC-1 cells were seeded on 384-well plates at 20 µL/well to give 2.0×10^4 cells per well. As for the cell culture conditions, RPMI 1640 medium containing 10% fetal bovine serum was used in the presence of 5% CO2 at 37° C.
The next day, the test compounds (10 points having final concentrations in the range of 10 μM to 0.3 nM), trametinib (MEK inhibitor) of a final concentration of […] as positive control and DMSO, which was the solvent for the test compounds, as negative control were diluted 500-fold with a fresh medium and were added at 20 μL per well. The cells were cultured overnight. After culturing, 30% glyoxal solution (40% glyoxal [from Nacalai Tesque]was diluted with PBS) was quickly added at 30 μL per well, and the plates were allowed to stand for 120 minutes at room temperature to thus immobilize the cells. Then, the plates were centrifuged to remove the supernatant (using a centrifugal dehydrator machine, the supernatant was removed by the same method hereinafter), and 0.10% Triton X-100-containing PBS was added at 20 μL per well. After allowing to stand for 10 minutes at room temperature, the supernatant was removed, and the same operation was further repeated. Next, 0.5% SDS-containing PBS was added at 20 μL per well, and after allowing to stand at room temperature for 30 minutes, the supernatant was removed. Subsequently, blocking solution (Intercept Blocking Buffer) was added at 20 μL per well, and the plates were allowed to stand for 1 hour at room temperature. The supernatant was removed, and an ERK (Thr202/Tyr204) phosphorylation antibody (Phospho-p44/42 MAPK (Erk 1/2) (Thr202/Tyr204) (D13.14.4E) XP Rabbit mAb; from Cell Signaling Technology) diluted 2,500-fold with blocking solution was added at 15 μL per well as a primary antibody. The plates were allowed to stand at 4° C. overnight.
The next day, the supernatant was removed. 0.05% Tween-20 (from Thermo Fisher Scientific)-containing PBS was added at 50 μL per well, and the supernatant was removed to thus wash each well. The washing was performed three times in total. After washing, Goat anti-Rabbit IgG H&L (IRDye 800CW) diluted 1,000-fold with blocking solution was added at 15 μL per well as a secondary antibody, and the plates were allowed to stand for 1 hour at room temperature. The supernatant was removed, and each well was washed three times with 0.05% Tween-20-containing PBS in the same manner as after the primary antibody reaction. After removing the supernatant, the plates were dried with air at room temperature for 3 hours or more, and the 800-nm fluorescent signals were measured with Aerius.
as §1, with “value at the time of addition of” for “value in treatment with”, “value at” for “value in”, “the time of addition of […] trametinib” for “the medium alone without cells”
as §2

[3] = target: T1, KRAS G12D (Homo sapiens, UniProt P01116, G12D); experiment: KRAS degradation activity by Cell ELISA in AsPC-1 cells (Test Example 1); conditions: for Dmax: ASPC1, overnight treatment, read-out: Dmax (degradation rate at the concentration showing highest degradation); for Dmax / DC50: Cell ELISA; for degradation rate at the highest concentration evaluated (printed in DC50 column): at 10 μM; for DC50: overnight treatment, read-out: DC50 (50% degradation concentration of KRAS)
T1 construct: host or cells: AsPC-1 (human pancreatic cancer line)
Method: The KRAS degradation activity of test compounds was evaluated by measuring the expression levels of KRAS G12D by Cell ELISA.
AsPC-1 cells were seeded at 20 μL per well on 384-well plates (from Greiner bio-one) to give 2.0×10^4 cells per well. As for the cell culture conditions, RPMI 1640 (from Sigma-Aldrich) medium containing 10% fetal bovine serum (from Cytiva) was used in the presence of 5% CO2 at 37° C.
The next day, the test compounds (10 points having final concentrations in the range of 10 μM to 0.3 nM) and DMSO (from FUJIFILM Wako Pure Chemical Corporation), which was the solvent for the test compounds, as a negative control were diluted 500-fold with a fresh medium and were added at 20 μL per well. The cells were cultured overnight. The next day, the culture supernatant was removed, and 4% paraformaldehyde phosphate buffer (from FUJIFILM Wako Pure Chemical Corporation) was added at 20 μL per well. The plates were allowed to stand for 30 minutes at room temperature to thus immobilize the cells. Then, the supernatant was removed, and 0.1% Triton X-100 (from Amersham Biosciences)-containing Phosphate buffered saline (PBS; from FUJIFILM Wako Pure Chemical Corporation) was added at 20 μL per well. After allowing to stand for 10 minutes at room temperature, the supernatant was removed. PBS was added at 25 μL per well, and the supernatant was removed to thus wash each well. The washing was performed twice in total. Next, the supernatant was removed, and 0.5% sodium dodecyl sulfate (SDS; from Invitrogen)-containing PBS was added at 20 μL per well. After allowing to stand at room temperature for 10 minutes, the supernatant was removed by a centrifugal operation (using a centrifugal dehydrator machine, the supernatant was removed by the same method hereinafter). PBS was added at 25 μL per well, and the supernatant was removed to thus wash each well. The washing was performed twice in total. The supernatant was removed, and blocking solution (Intercept Blocking Buffer; from Li—COR Biosciences) was added at 20 μL per well. After allowing to stand for 30 minutes at room temperature, the supernatant was removed, and a solution obtained by diluting anti-β-actin antibody (Anti-beta Actin antibody [mAbcam 8226]-Loading Control; from abcam) 1,000-fold with blocking solution and a solution obtained by diluting anti-Ras (G12D Mutant Specific) antibody (Ras (G12D Mutant Specific) (D8H7) Rabbit mAb #14429; from Cell Signaling Technology) and anti-β-actin antibody (from abcam) 1,000-fold with blocking solution were respectively added to positive control wells and the other wells at 15 μL per well as a primary antibody. The plates were allowed to stand overnight at 4° C.
The next day, the supernatant was removed. PBS was added at 25 μL per well, and the supernatant was removed to thus wash each well. The washing was performed twice in total. The supernatant was removed, and a solution obtained by diluting Donkey anti-Mouse IgG H&L (IRDye 680RD) (from Li—COR Biosciences) and Goat anti-Rabbit IgG H&L (IRDye 800CW) (from Li—COR Biosciences) 1,000-fold with blocking solution was added at 15 μL per well as a secondary antibody. A solution obtained by diluting Donkey anti-Mouse IgG H&L (IRDye 680RD) (from Li—COR Biosciences) 1,000-fold with blocking solution was added to a positive control well as a secondary antibody. After allowing to stand for 1 hour at room temperature, the supernatant was removed. PBS was added at […], and the supernatant was removed to thus wash each well. The washing was performed twice in total. After removing the supernatant, the plates were dried with air at room temperature for 2 hours or more, and the 700 nm and 800 nm fluorescent signals were measured with Aerius (from Li—COR Biosciences). […]

T1 sequence (P01116 1-188 isoform P01116-2 G12D): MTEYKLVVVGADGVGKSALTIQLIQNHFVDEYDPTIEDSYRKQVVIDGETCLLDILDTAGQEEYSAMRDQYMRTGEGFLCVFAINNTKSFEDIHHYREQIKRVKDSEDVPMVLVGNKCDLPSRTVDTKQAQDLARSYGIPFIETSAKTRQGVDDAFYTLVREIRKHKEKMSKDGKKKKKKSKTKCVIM

| SMILES | IC50 [1] [µM] | Dmax [3] [%] | degradation rate at the highest concentration evaluated (printed in DC50 column) [3] [% at 10 μM] | IC50 [2] [µM] | DC50 [3] [µM] | inhibition at 10 µM ([1]; at 10 μM, read-out: cell growth inhibition at the highest concentration evaluated) [%] | inhibition at 10 µM ([2]; ASPC1, at 10 μM, read-out: ERK phosphorylation inhibition at the highest concentration evaluated) [%] |
| --- | --- | --- | --- | --- | --- | --- | --- |
| CO[C@@H](C)COc1nc(N2CCNCC2)c2cc(C3CC3)c(-c3c(C)c(F)cc4[nH]ncc34)c(OCc3ccc(C(=O)N4CCN(Cc5ccc6c(c5)n(C)c(=O)n6C5CCC(=O)NC5=O)C[C@@H]4C)cc3)c2n1 (stereo partly shown) [Example 45] | 0.162 | – | – | – | – | – | – |
| Cc1c(F)cc2[nH]ncc2c1-c1c(C2CC2)cc2c(N3C[C@@H]4C[C@H]3CN4)nc(OC3CCOCC3)nc2c1OCc1ccc(C(=O)N2C[C@H]3C[C@@H]2CN3Cc2ccc3c(c2)C(=O)N(C2CCC(=O)NC2=O)C3=O)cc1 (stereo partly shown) [Example 4] | – | 40 | 40 | – | – | 22 | 33 |
| Cc1c(F)cc2[nH]ncc2c1-c1c(C2CC2)cc2c(N3C[C@@H]4C[C@H]3CN4)nc(OC3CCOCC3)nc2c1OCc1ccc(C(=O)N2CCN(Cc3ccc4c(c3)c(N3CCC(=O)NC3=O)nn4C)C[C@@H]2C)cc1 (atropisomer, axis not shown) [Example 27] | 1.89 | 25 | 25 | 2.77 | – | – | – |
| Cc1nc(N2CCN(C(=O)c3ccc(COc4c(-c5c(C)c(F)cc6[nH]ncc56)c(C5CC5)cc5c(N6C[C@@H]7C[C@H]6CN7)nc(OC6CCOCC6)nc45)cc3)CC2)ccc1N1CCC(=O)NC1=O (atropisomer, axis not shown) [Example 14] | 1.12 | 51 | – | 1.51 | 2.18 | – | – |
| Cc1c(F)cc2[nH]ncc2c1-c1c(C2CC2)cc2c(N3C[C@@H]4C[C@H]3CN4)nc(OC3CCOCC3)nc2c1OCc1ccc(C(=O)N2CCN(Cc3ccc4c(c3)n(C)c(=O)n4N3CCC(=O)NC3=O)C[C@@H]2C)cc1 (atropisomer, axis not shown) [Example 47] | 0.448 | – | – | – | – | – | – |
| Cc1c(F)cc2[nH]ncc2c1-c1c(C2CC2)cc2c(N3C[C@@H]4C[C@H]3CN4)nc(OC3CCOCC3)nc2c1OCc1ccc(C(=O)N2CCN(Cc3ccc4c(c3)cc(N3CCC(=O)NC3=O)c(=O)n4C)C[C@@H]2C)cc1 (atropisomer, axis not shown) [Example 46] | 1.28 | – | – | – | – | – | – |

More lines, main results first:

| IC50 [1] [µM] | Dmax [3] [%] | degradation rate at the highest concentration evaluated (printed in DC50 column) [3] [% at 10 μM] | IC50 [2] [µM] | DC50 [3] [µM] | SMILES | inhibition at 10 µM ([1]; at 10 μM, read-out: cell growth inhibition at the highest concentration evaluated) [%] | inhibition at 10 µM ([2]; ASPC1, at 10 μM, read-out: ERK phosphorylation inhibition at the highest concentration evaluated) [%] |
| --- | --- | --- | --- | --- | --- | --- | --- |
| 0.155 | 78 | – | 0.09 | 0.052 | Cc1c(F)cc2[nH]ncc2c1-c1c(C2CC2)cc2c(N3C[C@@H]4C[C@H]3CN4)nc(O[C@H]3CCOC3)nc2c1OCc1ccc(C(=O)N2CCN(Cc3ccc4c(c3)n(C)c(=O)n4C3CCC(=O)NC3=O)C[C@@H]2C)cc1 (stereo partly shown) [Example 41] | – | – |
| 0.161 | – | – | – | – | Cc1c(F)cc2[nH]ncc2c1-c1c(C2CC2)nc2c(N3C[C@@H]4C[C@H]3CN4)nc(OC3CCOCC3)nc2c1OCc1ccc(C(=O)N2CCN(Cc3ccc4c(c3)n(C)c(=O)n4C3CCC(=O)NC3=O)C[C@@H]2C)cc1 (stereo partly shown) [Example 48] | – | – |
| 0.052 | 83 | – | 0.03 | 0.022 | CO[C@@H](C)COc1nc(O[C@@H]2CCNC2)c2cc(C3CC3)c(-c3c(C)c(F)cc4[nH]ncc34)c(OCc3ccc(C(=O)N4CCN(Cc5ccc6c(c5)n(C)c(=O)n6C5CCC(=O)NC5=O)C[C@@H]4C)cc3)c2n1 (stereo partly shown) [Example 39] | – | – |
| 0.159 | 80 | – | 0.078 | 0.079 | Cc1c(F)cc2[nH]ncc2c1-c1c(C2CC2)cc2c(N3C[C@@H]4C[C@H]3CN4)nc(O[C@@H]3CCOC3)nc2c1OCc1ccc(C(=O)N2CCN(Cc3ccc4c(c3)n(C)c(=O)n4C3CCC(=O)NC3=O)C[C@@H]2C)cc1 (stereo partly shown) [Example 36] | – | – |
